The values below come from patent US12497395B2, “Small molecule bromodomain inhibitors and uses therof” (ConverGene, LLC, priority 2019, dated 2025).

Where two headings read alike, the source gives them in different places.

As a reminder, the Kd is a measure of binding affinity in units of concentration. The low end stands for tighter binding, the high end for weaker binding. The IC50 is the concentration that gives 50% inhibition.

For test [1], the target named is BRD4 (BD1, 2) (Homo sapiens, UniProt O60885). Nature of the test: BROMOscan competitive ligand binding assay, BRD4 (BD1, 2).
Test [2] concerns the target T1, full-length recombinant human BRD4 (Homo sapiens, UniProt O60885).
T1 construct: His-tag (N); purchased Reaction Biology RD-21-153; host or cells: Sf9 insect cells
The test is described as follows: AlphaScreen assay, full-length BRD4 with acetylated histone H4 peptide. The class given is binding. As to conditions: full-length BRD4, acetylated H4 peptide (1-21) ligand. As to the method: AlphaScreen® assay, an […], was conducted by following manufacturer's protocol (PerkinElmer, Waltham, MA) at Reaction Biology (Malvern, PA) utilizing full-length recombinant human BRD4 corresponding to amino acid position 2-1362 (NCBI Reference Sequence: NM_058243) expressed in Sf9 insect cells with an N-terminal His-tag (Reaction Biology Catalog No. RD-21-153), and histone H4 peptide (1-21) containing acetylated lysine residues at positions 5, 8, 12 and 16 as the ligand. […] H4 ligand peptide was then added and the mixture was incubated for another 30 minutes at room temperature. Streptavidin-coated donor beads and Ni acceptor beads were then added, and the mixture was incubated for additional 60 minutes. Fluorescent measurements (Ex/Em=680/520-620 nm) were taken and the data were fitted to the Hill equation with variable slopes to obtain IC50 values.
On the technique in general: Bead proximity is the source of the signal in Alpha formats.

The target in test [3] is T2, P300 (Homo sapiens, UniProt Q09472).
T2 sequence (Q09472 1049-1156 limits assumed): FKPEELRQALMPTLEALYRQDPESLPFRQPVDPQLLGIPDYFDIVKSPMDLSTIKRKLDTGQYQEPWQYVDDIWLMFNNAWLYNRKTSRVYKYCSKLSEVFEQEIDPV
The test is described as follows: BROMOscan competitive ligand binding assay, P300.

In test [4] the test system is MV4-11 cells. The test is described as follows: MV4-11 cytotoxicity assay (CellTiter-Glo). The class given is cell-based. As to conditions: Homo sapiens, 72 hr incubation. As to the method:
Cell lines: The MV4-11 cell line were obtained from American Type Culture Collection (ATCC, Manassas, VA, USA) and cultured in RPMI 1640 (Invitrogen 11879020) culture medium supplemented with 10% fetal bovine serum and 100 units/mL Penicillin, 100 μg/mL Streptomycin and maintained in a 37° C., 5% CO2/95% humidified air incubator.
Cytotoxicity Assay: MV4-11 cells were cultured as described above, and plated in 1536-well white solid tissue culture plates using a Multidrop Combi peristaltic dispenser (ThermoFisher, Waltham, MA) at a density of 500 cells/well in 5 μL of RPMI 1640 (Invitrogen 11879020) culture medium supplemented with 10% fetal bovine serum and 100 units/mL Penicillin, 100 μg/mL Streptomycin. A 1536-well pintool dispenser outfitted with 20 nL pins (Wako Automation, San Diego, CA) was used to transfer 23 nL of compound in DMSO to the 1536-well assay plates. After 72 hr incubation at 37° C., 2.5 μL of CellTiter-Glo (Promega) was dispensed into each well using a BioRAPTR FRD dispenser (Beckman Coulter, Brea, CA). Plates were incubated at room temperature for 10 minutes, transferred to a ViewLux microplate imager (Perkin Elmer, Waltham, MA) and the ATP-coupled luminescence was measured using a 1 second exposure.
A general note: In ATP-based viability assays light output follows the ATP content of the culture.

Test [5] has as its target CBP (Homo sapiens, UniProt Q92793). The test is described as follows: BROMOscan competitive ligand binding assay, CBP.
The target in test [6] is BRD2 (BD1) (Homo sapiens, UniProt P25440). The test is described as follows: BROMOscan competitive ligand binding assay, BRD2 (BD1).
BRD2 (BD1), sequence (P25440 74-180 limits assumed): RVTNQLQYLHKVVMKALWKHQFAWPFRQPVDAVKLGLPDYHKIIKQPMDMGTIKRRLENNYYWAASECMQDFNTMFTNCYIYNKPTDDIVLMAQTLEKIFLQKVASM
In test [7] the target is BRD3 (BD1, 2) (Homo sapiens, UniProt Q15059). The test is described as follows: BROMOscan competitive ligand binding assay, BRD3 (BD1, 2).
BRD3 (BD1, 2), sequence (Q15059 24-416 limits assumed): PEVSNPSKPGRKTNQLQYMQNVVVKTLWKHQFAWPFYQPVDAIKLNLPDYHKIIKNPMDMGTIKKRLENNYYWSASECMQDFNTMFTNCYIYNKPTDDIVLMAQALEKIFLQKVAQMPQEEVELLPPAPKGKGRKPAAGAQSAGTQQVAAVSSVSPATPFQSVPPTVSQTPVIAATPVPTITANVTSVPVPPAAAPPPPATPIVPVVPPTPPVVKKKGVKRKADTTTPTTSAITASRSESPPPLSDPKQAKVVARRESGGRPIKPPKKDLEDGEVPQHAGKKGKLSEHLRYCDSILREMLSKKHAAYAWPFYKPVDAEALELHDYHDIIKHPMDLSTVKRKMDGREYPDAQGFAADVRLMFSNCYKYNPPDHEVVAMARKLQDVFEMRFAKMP
Test [8] concerns the target BRD4 (BD2) (Homo sapiens, UniProt O60885). The test is described as follows: BROMOscan competitive ligand binding assay, BRD4 (BD2).
Test [9] deals with BRD2 (BD2) (Homo sapiens, UniProt P25440). The test is described as follows: BROMOscan competitive ligand binding assay, BRD2 (BD2).
BRD2 (BD2), sequence (P25440 344-453 limits assumed): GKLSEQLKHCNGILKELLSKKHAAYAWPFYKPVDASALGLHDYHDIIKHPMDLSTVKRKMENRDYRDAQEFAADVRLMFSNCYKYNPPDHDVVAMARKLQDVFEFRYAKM
Test [10] deals with BRDT (BD1) (Homo sapiens, UniProt Q58F21). Nature of the test: BROMOscan competitive ligand binding assay, BRDT (BD1).
Test [11] deals with BRD4 (BD1) (Homo sapiens, UniProt O60885). The test is described as follows: BROMOscan competitive ligand binding assay, BRD4 (BD1).
Test [12] has as its target BRDT (BD1, 2) (Homo sapiens, UniProt Q58F21). The test is described as follows: BROMOscan competitive ligand binding assay, BRDT (BD1, 2).
Test [13] relates to acute myeloid leukemia cell line Kasumi-1. Nature of the test: Kasumi-1 cell viability assay (CellTiter-Blue). The class given is cell-based. As to conditions: Homo sapiens, read-out: Kasumi-1 IC50. Here is the method:
Cell viability assay: Cell viability assay was conducted to obtain G150, the compound concentration resulting in 50% growth inhibition, using an acute myeloid leukemia cell line Kasumi-1 (ATCC® CRL-2724™) (ATCC, Manassas, VA). Briefly, cells were seeded on a 96-well flat-bottom cell culture plate at the density of 30,000 cells per well (MV-4-11) or 10,000 cells per well (Kasumi-1) in RPMI supplemented with 10% fetal bovine serum and L-glutamine plus penicillin and streptomycin. Cells were maintained at 37° C. with 5% CO2 for 24 hours then exposed to a given compound at either 11 or 21 concentrations ranging from 0 μM to 20 μM in a 150 μL volume in the presence of 0.2% dimethyl sulfoxide, the solvent used in serial dilution of the compound. The exposure was maintained for approximately 72 hours and the cell viability was measured using CellTiter-Blue® (Promega, Madison, WI) according to manufacturer's instruction. GI50 values were calculated using a four-parameter dose-response model in Graph Pad Prism (La Jolla, CA).
On the technique in general: Alamar Blue is a resazurin reagent that responds to reducing activity.

For test [14], the target named is BRDT (BD2) (Homo sapiens, UniProt Q58F21). The test is described as follows: BROMOscan competitive ligand binding assay, BRDT (BD2).
Test [15] concerns the target BRD3 (BD1) (Homo sapiens, UniProt Q15059). Nature of the test: BROMOscan competitive ligand binding assay, BRD3 (BD1).
For test [16], the target named is BRD2 (BD1, 2) (Homo sapiens, UniProt P25440). Nature of the test: BROMOscan competitive ligand binding assay, BRD2 (BD1, 2).
BRD2 (BD1, 2), sequence (P25440 71-455 limits assumed): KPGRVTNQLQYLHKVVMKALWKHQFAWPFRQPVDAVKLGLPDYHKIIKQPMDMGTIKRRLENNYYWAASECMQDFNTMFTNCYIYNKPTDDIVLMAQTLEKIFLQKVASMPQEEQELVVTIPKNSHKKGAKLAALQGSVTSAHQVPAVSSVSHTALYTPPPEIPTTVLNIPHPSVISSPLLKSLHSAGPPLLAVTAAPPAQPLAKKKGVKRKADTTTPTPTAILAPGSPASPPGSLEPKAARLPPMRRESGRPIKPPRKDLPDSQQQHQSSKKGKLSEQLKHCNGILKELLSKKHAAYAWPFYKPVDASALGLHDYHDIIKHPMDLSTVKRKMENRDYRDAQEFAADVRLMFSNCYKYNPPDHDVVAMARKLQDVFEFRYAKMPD
The target of test [17] is BRD3 (BD2) (Homo sapiens, UniProt Q15059). The test is described as follows: BROMOscan competitive ligand binding assay, BRD3 (BD2).
BRD3 (BD2), sequence (Q15059 306-415 limits assumed): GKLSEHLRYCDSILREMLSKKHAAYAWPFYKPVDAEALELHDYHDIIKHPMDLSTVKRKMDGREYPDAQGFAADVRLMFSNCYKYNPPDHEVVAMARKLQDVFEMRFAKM
Setting [18] is: Kasumi 1, approximately 72 hours exposure, CellTiter-Blue.

CBP, sequence (Q92793 1085-1192 limits assumed): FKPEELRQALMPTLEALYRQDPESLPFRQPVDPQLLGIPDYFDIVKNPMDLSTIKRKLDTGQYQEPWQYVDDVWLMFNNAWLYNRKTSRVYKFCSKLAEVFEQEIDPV
BRD3 (BD1), sequence (Q15059 34-140 limits assumed): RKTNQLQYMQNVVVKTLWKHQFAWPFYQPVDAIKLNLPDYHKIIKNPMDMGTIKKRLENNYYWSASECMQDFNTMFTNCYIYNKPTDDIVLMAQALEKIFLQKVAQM

With `Cc1cc(-c2ccc3nc(-c4cnn(CC(C)(C)O)c4)nc(N4CCOC[C@@H]4C4CC4)c3c2)cn(C)c1=O` [Cpd. 3, (S)-5-(4-(3-cyclopropylmorpholino)-2-(1-(2-hydroxy-2-methylpropyl)-1H-pyrazol-4-yl)quinazolin-6-yl)-1,3-dimethylpyridin-2(1H)-one], the Kd is less than 100 nM in test [1] (tandem bromodomains), 100 to 500 nM in [3] and 100 to 500 nM in test [5]. Also, the 50% inhibitory concentration (IC50) fell in the range of 100 to 500 nM in [2] and 500 to 5000 nM in [4].

`Cc1cc(-c2ccc3nc(N4CCO[C@H](CO)C4)nc(N4CCOC[C@@H]4c4ccccc4)c3c2)cn(C)c1=O` [Cpd. 11, 5-(2-((S)-2-(hydroxymethyl)morpholino)-4-((S)-3-phenylmorpholino)quinazolin-6-yl)-1,3-dimethylpyridin-2(1H)-one]: the dissociation constant (Kd) in test [3] and in test [5] was less than 100 nM in each case.

For the molecule `Cc1cc(-c2ccc3nc(-c4cnn(CC(C)(C)O)c4)nc(N4CCOC[C@@H]4c4ccccc4)c3c2)cn(C)c1=O` [Cpd. 1, (S)-5-(2-(1-(2-hydroxy-2-methylpropyl)-1H-pyrazol-4-yl)-4-(3-phenylmorpholino)quinazolin-6-yl)-1,3-dimethylpyridin-2(1H)-one], the dissociation constant (Kd) in test [1] (Table 3), in [1] (tandem bromodomains), in test [6], in test [7], in [8] and in test [3] was less than 100 nM throughout. Further, the Kd in [9], in [10], in [11], in test [12], in test [14] and in test [15] was less than 100 nM each time. In addition, the dissociation constant Kd in test [16], in [5] and in test [17] was less than 100 nM throughout. Moreover, the IC50 in [2] is less than 100 nM; in test [4], 100 to 500 nM; in test [13] (Kasumi 1, 72 h), less than 100 nM.

Turning to `Cc1cc(-c2ccc3nc(-c4cnn(CC(C)(C)O)c4)nc(N4CCOC[C@@H]4c4ccc(F)cc4)c3c2)cn(C)c1=O` [Cpd. 6, (S)-5-(4-(3-(4-fluorophenyl)morpholino)-2-(1-(2-hydroxy-2-methylpropyl)-1H-pyrazol-4-yl)quinazolin-6-yl)-1,3-dimethylpyridin-2(1H)-one], the Kd in [1] (tandem bromodomains), in test [3] and in [5] was less than 100 nM throughout. Besides, the IC50 in [2] is less than 100 nM; in test [4] it was 100 to 500 nM; in test [13] (setting [18]), less than 100 nM.

On to `Cn1cc(-c2ccc3nc(-c4cnn(CC(C)(C)O)c4)nc(N4CCOC[C@@H]4C4CC4)c3c2)c2cc[nH]c2c1=O` [Cpd. 4, (S)-4-(4-(3-cyclopropylmorpholino)-2-(1-(2-hydroxy-2-methylpropyl)-1H-pyrazol-4-yl)quinazolin-6-yl)-6-methyl-1,6-dihydro-7H-pyrrolo[2,3-c]pyridin-7-one], for which the Kd in [1] (tandem bromodomains), in [3] and in test [5] was less than 100 nM each time. The IC50 in test [2] and in test [4] was less than 100 nM in each case.

`Cc1cc(-c2ccc3nc(N4CCO[C@H](CO)C4)nc(N4CCOC[C@@H]4C4CCCCC4)c3c2)cn(C)c1=O` [Cpd. 10, 5-(4-((S)-3-cyclohexylmorpholino)-2-((S)-2-(hydroxymethyl)morpholino)quinazolin-6-yl)-1,3-dimethylpyridin-2(1H)-one]: the Kd in test [3] and in test [5] was 100 to 500 nM in each case.

`Cn1cc(-c2ccc3nc(N4CCO[C@H](CO)C4)nc(N4CCOC[C@@H]4c4ccc(F)cc4)c3c2)c2cc[nH]c2c1=O` [Cpd. 15, 4-(4-((S)-3-(4-fluorophenyl)morpholino)-2-((S)-2-(hydroxymethyl)morpholino)quinazolin-6-yl)-6-methyl-1,6-dihydro-7H-pyrrolo[2,3-c]pyridin-7-one]: the Kd in test [3] and in test [5] was less than 100 nM throughout.

`Cc1cc(-c2ccc3nc(-c4cnn(CC(C)(C)O)c4)nc(N4CCOC[C@@H]4C4CCCCC4)c3c2)cn(C)c1=O` [Cpd. 12, (S)-5-(4-(3-cyclohexylmorpholino)-2-(1-(2-hydroxy-2-methylpropyl)-1H-pyrazol-4-yl)quinazolin-6-yl)-1,3-dimethylpyridin-2(1H)-one]: the Kd in [3] and in [5] was 100 to 500 nM each time.

As for `Cn1cc(-c2ccc3nc(N4CCO[C@H](CO)C4)nc(N4CCOC[C@@H]4C4CCCCC4)c3c2)c2cc[nH]c2c1=O` [Cpd. 13, 4-(4-((S)-3-cyclohexylmorpholino)-2-((S)-2-(hydroxymethyl)morpholino)quinazolin-6-yl)-6-methyl-1,6-dihydro-7H-pyrrolo[2,3-c]pyridin-7-one], the equilibrium dissociation constant (Kd) in [3] and in test [5] was less than 100 nM in each case.

As to `Cn1cc(-c2ccc3nc(-c4cnn(CC(C)(C)O)c4)nc(N4CCOC[C@@H]4C4CCCCC4)c3c2)c2cc[nH]c2c1=O` [Cpd. 14, (S)-4-(4-(3-cyclohexylmorpholino)-2-(1-(2-hydroxy-2-methylpropyl)-1H-pyrazol-4-yl)quinazolin-6-yl)-6-methyl-1,6-dihydro-7H-pyrrolo[2,3-c]pyridin-7-one], the Kd was 100 to 500 nM in [3] and less than 100 nM in [5].

As for `Cn1cc(-c2ccc3nc(-c4cnn(CC(C)(C)O)c4)nc(N4CCOC[C@@H]4c4ccc(F)cc4)c3c2)c2cc[nH]c2c1=O` [Cpd. 5, (S)-4-(4-(3-(4-fluorophenyl)morpholino)-2-(1-(2-hydroxy-2-methylpropyl)-1H-pyrazol-4-yl)quinazolin-6-yl)-6-methyl-1,6-dihydro-7H-pyrrolo[2,3-c]pyridin-7-one], the dissociation constant Kd in [1] (tandem bromodomains), in test [3] and in test [5] was less than 100 nM in each case. Besides, the IC50 in test [2] is less than 100 nM; in test [4], 100 to 500 nM; in test [13] (setting [18]) it was less than 100 nM.
